Experimental data published in PubChem BioAssay AID292 (DTP/NCI, 2004).
“And” between values parts separate entries of the source, which are not always exact repeats. Identical values can stand only once. Inconclusive results and toxic doses are left out.

Test system: B6C3F1 mice, ip Sarcoma M5076, median survival T/C
Assay: NCI In Vivo Anticancer Drug Screen. Data for tumor model Sarcoma M5076 (intraperitoneal) in B6C3F1 mice
Conditions: endpoint: median survival time, schedule: Q04DX004 (ip), higher = longer survival
Procedure, shortened: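 Mice carrying the transplanted tumour received compound treatment. Survival was recorded, and each value is the treated-group measurement divided by that of the vehicle-dosed control group.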

[1] = dose: 50.0 mg/kg/injection, vehicle: Klucel (hydroxypropylcellulose) (HPC)
[2] = dose: 100.0 mg/kg/injection, vehicle: Klucel (hydroxypropylcellulose) (HPC)
[3] = dose: 200.0 mg/kg/injection, vehicle: Klucel (hydroxypropylcellulose) (HPC)
[4] = dose: 50.0 mg/kg/injection, vehicle: saline with Tween-80
[5] = dose: 100.0 mg/kg/injection, vehicle: saline with Tween-80
[6] = dose: 200.0 mg/kg/injection, vehicle: saline with Tween-80
[7] = dose: 400.0 mg/kg/injection, vehicle: saline with Tween-80
[8] = dose: 25.0 mg/kg/injection, vehicle: saline with Tween-80
[9] = dose: 50.0 mg/kg/injection, vehicle: saline
[10] = dose: 100.0 mg/kg/injection, vehicle: saline
[11] = dose: 200.0 mg/kg/injection, vehicle: saline
[12] = dose: 400.0 mg/kg/injection, vehicle: saline
[13] = dose: 25.0 mg/kg/injection, vehicle: saline
[14] = dose: 75.0 mg/kg/injection, vehicle: saline with Tween-80
[15] = dose: 150.0 mg/kg/injection, vehicle: saline with Tween-80
[16] = dose: 300.0 mg/kg/injection, vehicle: saline with Tween-80
[17] = dose: 600.0 mg/kg/injection, vehicle: saline with Tween-80

C=Cc1cc(OC)c2c(c1)c(=O)oc1c2cc(OC)c2c(O)ccc(C3OC(C)C(O)C(C)(O)C3O)c21 (stereo not drawn)
T/C (dose: 10.0 mg/kg/injection, vehicle: DMSO): 114 % of control | T/C (dose: 20.0 mg/kg/injection, vehicle: DMSO): 110 % of control | T/C (dose: 40.0 mg/kg/injection, vehicle: DMSO): 88 % of control | T/C (dose: 80.0 mg/kg/injection, vehicle: DMSO): 118 % of control | T/C (dose: 160.0 mg/kg/injection, vehicle: DMSO): 100 % of control

Cc1ccc(C2C(C#N)C(=O)NC(=O)C2C#N)cc1 (stereo not drawn)
T/C [1]: 99 % of control | T/C [2]: 99 % of control | T/C [3]: 86 % of control

C/C=C\C1OC1(C)c1cc(=O)c2c(C)cc3c(c2o1)C(=O)c1c(O)c(C2CC(C)(N(C)C)C(OC(C)=O)C(C)O2)cc(C2CC(N(C)C)C(O)C(C)O2)c1C3=O (stereo not drawn)
T/C (dose: 0.19 mg/kg/injection, vehicle: saline + alcohol): 105 % of control | T/C (dose: 0.38 mg/kg/injection, vehicle: saline + alcohol): 110 % of control | T/C (dose: 0.75 mg/kg/injection, vehicle: saline + alcohol): 120 % of control | T/C (dose: 3.0 mg/kg/injection, vehicle: saline + alcohol): 156 % of control

CCNC(=O)OCc1cnc(C)c(OC(=O)NCC)c1COC(=O)NCC
T/C [4]: 89 % of control | T/C [5]: 90 % of control | T/C [6]: 87 % of control | T/C [7]: 86 % of control | T/C (dose: 800.0 mg/kg/injection, vehicle: saline with Tween-80): 91 % of control

COc1cc(C(C)(C)C)cc(OC)c1C(O)(c1c(OC)cc(C(C)(C)C)cc1OC)c1c(OC)cc(C(C)(C)C)cc1OC
T/C [8]: 123 % of control | T/C [4]: 116 % of control | T/C [5]: 108 % of control | T/C [6]: 123 % of control

COC(=O)[C@@]12OC[C@]34[C@H]([C@@H](O)[C@@H]1O)[C@@]1(C)CC(=O)C(OC(=O)CC(=O)OC5=C(C)[C@@H]6C[C@H]7OC(=O)[C@H](OC(=O)/C=C(\C)C(C)C)[C@H]8[C@]9(C(=O)OC)OC[C@]78[C@H]([C@@H](O)[C@@H]9O)[C@@]6(C)CC5=O)=C(C)[C@@H]1C[C@H]3OC(=O)[C@H](OC(=O)/C=C(\C)C(C)C)[C@@H]24
T/C (dose: 0.75 mg/kg/injection, vehicle: saline + Tween-80 + alcohol): 108 % of control | T/C (dose: 1.5 mg/kg/injection, vehicle: saline + Tween-80 + alcohol): 118 % of control | T/C (dose: 3.0 mg/kg/injection, vehicle: saline + Tween-80 + alcohol): 118 % of control | T/C (dose: 6.0 mg/kg/injection, vehicle: saline + Tween-80 + alcohol): 112 % of control

CCOC(=O)/C=C1/SC(N2CCCCC2)C(=O)N1CC (stereo not drawn)
T/C [1]: 96 % of control | T/C [2]: 96 % of control | T/C [3]: 97 % of control | T/C (dose: 400.0 mg/kg/injection, vehicle: Klucel (hydroxypropylcellulose) (HPC)): 94 % of control

NC(=O)c1c[se]c(C2OC(CO)C(O)C2O)n1 (stereo not drawn)
T/C (dose: 25.0 mg/kg/injection, vehicle: water): 96 % of control | T/C (dose: 50.0 mg/kg/injection, vehicle: water): 100 % of control | T/C (dose: 100.0 mg/kg/injection, vehicle: water): 102 % of control | T/C (dose: 200.0 mg/kg/injection, vehicle: water): 106 % of control | T/C (dose: 400.0 mg/kg/injection, vehicle: water): 113 % of control

CCCS(=N)(=O)CCC(N)C(=O)O (stereo not drawn)
T/C [9]: 103 % of control | T/C [10]: 105 % of control | T/C [11]: 102 % of control | T/C [12]: 102 % of control | T/C (dose: 800.0 mg/kg/injection, vehicle: saline): 105 % of control

COC1N(C2CC(O)C(CO)O2)C(=O)NC(=O)C1(F)Br (stereo not drawn)
T/C [13]: 108 % of control | T/C [9]: 113 % of control | T/C [10]: 112 % of control | T/C [11]: 114 % of control | T/C [12]: 113 % of control

CC1OC(O[C@H]2/C=C/C=C/C=C/C=C/C=C/C=C/C=C/[C@H](C)[C@@H](O)[C@@H](C)[C@H](C)OC(=O)C[C@H](O)C[C@H](O)CC[C@@H](O)[C@H](O)C[C@H](O)C[C@]3(O)C[C@H](O)[C@@H](C(=O)O)[C@H](C2)O3)C(O)C(N)C1O (stereo partly drawn)
T/C (dose: 3.12 mg/kg/injection, vehicle: suspension in saline): 97 % of control | T/C (dose: 6.25 mg/kg/injection, vehicle: suspension in saline): 105 % of control | T/C (dose: 12.5 mg/kg/injection, vehicle: suspension in saline): 100 % of control and 101 % of control | T/C (dose: 25.0 mg/kg/injection, vehicle: suspension in saline): 100 % of control and 109 % of control | T/C (dose: 50.0 mg/kg/injection, vehicle: suspension in saline): 98 % of control and 107 % of control

CC1=C(/C=C/C(C)=C/C=C/C(C)=C/C(=O)Nc2ccc(O)cc2)C(C)(C)CCC1
T/C [8]: 97 % of control | T/C [4]: 96 % of control | T/C [5]: 105 % of control | T/C [6]: 95 % of control | T/C [7]: 97 % of control

COc1cc(NCc2ccc3nc(N)nc(N)c3c2C)cc(OC)c1OC (tested in a mixture with another compound)
T/C (dose: 10.0 mg/kg/injection, vehicle: water): 108 % of control | T/C (dose: 20.0 mg/kg/injection, vehicle: water): 112 % of control | T/C (dose: 40.0 mg/kg/injection, vehicle: water): 117 % of control | T/C (dose: 80.0 mg/kg/injection, vehicle: water): 115 % of control

Nc1ccccc1Sc1cc(Cl)nnc1Cl
T/C [4]: 97 % of control | T/C [5]: 98 % of control | T/C [6]: 102 % of control | T/C [7]: 88 % of control

COc1ccc(C=C(C(=O)CCN(C)C)C(=O)CCN(C)C)cc1
T/C [13]: 99 % of control | T/C [9]: 101 % of control | T/C [10]: 102 % of control | T/C [11]: 102 % of control

CCOC(=O)c1c(C(=O)OC)nc2n1-c1ccccc1OC2
T/C (dose: 31.25 mg/kg/injection, vehicle: saline with Tween-80): 100 % of control | T/C (dose: 62.0 mg/kg/injection, vehicle: saline with Tween-80): 103 % of control | T/C (dose: 125.0 mg/kg/injection, vehicle: saline with Tween-80): 100 % of control | T/C (dose: 250.0 mg/kg/injection, vehicle: saline with Tween-80): 88 % of control | T/C (dose: 500.0 mg/kg/injection, vehicle: saline with Tween-80): 96 % of control

Cc1[nH]c(=O)[nH]c(=O)c1CCSSCCc1c(C)[nH]c(=O)[nH]c1=O
T/C (dose: 37.5 mg/kg/injection, vehicle: saline with Tween-80): 90 % of control | T/C [14]: 86 % of control | T/C [15]: 89 % of control | T/C [16]: 86 % of control | T/C [17]: 90 % of control

Cc1ccc(-c2c([N+](=O)[O-])c3ccccn3c2[N+](=O)[O-])cc1
T/C [14]: 97 % of control | T/C [15]: 87 % of control | T/C [16]: 87 % of control | T/C [17]: 101 % of control

CC(=O)OCc1cc(=O)n(C)c2c3c4c(cc12)c(C)cc(=O)n4CO3
T/C (dose: 10.0 mg/kg/injection, vehicle: Klucel (hydroxypropylcellulose) (HPC)): 103 % of control | T/C (dose: 20.0 mg/kg/injection, vehicle: Klucel (hydroxypropylcellulose) (HPC)): 112 % of control | T/C (dose: 40.0 mg/kg/injection, vehicle: Klucel (hydroxypropylcellulose) (HPC)): 104 % of control | T/C (dose: 80.0 mg/kg/injection, vehicle: Klucel (hydroxypropylcellulose) (HPC)): 111 % of control

COc1cc2c(c3c1/c(=N/N(C)C)c1ccccc1n3C)C=CC(C)(C)O2
T/C [8]: 110 % of control | T/C [4]: 105 % of control | T/C [5]: 110 % of control | T/C [6]: 110 % of control
